# Laboratory results published in US20240158447A1, “PEPTIDES FOR USE IN THE TREATMENT OR PREVENTION OF MYOCARDIAL DAMAGE” (THE UNIVERSITY OF WESTERN AUSTRALIA, priority 2020, published 2024).
# Columns and labels:
# cTnI.2 wt myocytes = assay: Mitochondrial membrane potential (JC-1) response to BayK(−), wt myocytes (Example 10); format: cell-based, mouse; details: 0.5 μM peptide, calcium-free, FIG. 11A
# Protocol: In this experiment wt myocytes were pre-exposed to 0.1, 0.5 or 1 μM for 20 min and assessed changes in flavoprotein oxidation and ψm.
# Measurement of mitochondrial membrane potential: The fluorescent indicator 5,5′,6,6′-tetrachloro1,1′,3,3′-tetraethylbenzimidazolylcarbocyanine iodide (JC-1) was used to measure mitochondrial membrane potential (ψm) as previously described (Viola H M, Arthur P G, Hool L C. Transient exposure to hydrogen peroxide causes an increase in mitochondria-derived superoxide as a result of sustained alteration in L-type Ca2+ channel function in the absence of apoptosis in ventricular myocytes. Circ Res. 2007; 100(7):1036-44). […] Images were acquired at 2 min intervals with 50 ms exposure. Metamorph 6.3 (Version 7.10.3) was used to quantify the signal by manually tracing myocytes. An equivalent region not containing cells was used as background and was subtracted. The 580 nm/535 nm ratiometric fluorescence values recorded over 6 min before and 4 min after addition of drugs were averaged and alterations in fluorescent ratios reported as the percentage increase from the basal average. […] In addition, individual 580 and 535 signals were assessed in each experiment to determine whether the fluorescent indicator was accurately measuring ψm. […]
# Based on results obtained from in vitro assessment of flavoprotein oxidation, the effect of 0.5 μM AID-TAT variants on changes in mitochondrial membrane potential (ψm) was further explored. Experiments were performed using JC-1 fluorescence under calcium-free conditions as previously described (Viola H, Johnstone V, Cserne Szappanos H, Richman T, Tsoutsman T, Filipovska A, et al. The L-type Ca(2+) channel facilitates abnormal metabolic activity in the cTnI-G2035 mouse model of hypertrophic cardiomyopathy. J Physiol. 2016; 594(14):4051-70; Viola H M, Shah A A, Johnstone V P A, Cserne Szappanos H, Hodson M P, Hool L C. Characterization and validation of a preventative therapy for hypertrophic cardiomyopathy in a murine model of the disease. Proc Natl Acad Sci U S A. 2020; 117(37):23113-24). […]
# [1] = system: wild type cardiac myocytes; assay: Mitochondrial membrane potential (JC-1) after H2O2 in cardiac myocytes; format: cell-based, mouse; details: 20 min incubation with 0.5-1 μM peptide; calcium-free; 30 μM H2O2 5 min; FIG. 3(c)
# Protocol: Adult male C57BL/6J mice were anesthetized with pentobarbitone sodium (240 mg/kg) via intraperitoneal injection prior to excision of the heart. Ventricular myocytes were isolated. Mouse hearts were cannulated onto a Langendorff apparatus via the aorta and perfused retrogradely with Krebs-Henseleit Buffer (KHB) containing (in mM): 120 NaCl, 25 NaHCO3, 4.8 KCl, 2.2 MgSO4, 1.2 NaH2PO4 and 11 glucose (pH=7.35 with O2/CO2 at 37° C.) for 4 min at 37° C. Hearts were then perfused with KHB supplemented with 2.4 mg/ml collagenase B for 3 min, then 8 min perfusion in the presence of 40 μM calcium. […]
# All in vitro studies were performed in freshly isolated myocytes at 37° C. […] Following a 20 min incubation with 0.5-1 μM AID(S)-TAT, AID-TAT, peptide 6 or peptide 7, fluorescent signal of individual myocytes was quantified using Metamorph 6.3 to measure signal intensity of manually traced cell regions. […]
# Mitochondrial membrane potential (Ψm) was monitored in cardiac myocytes by assessing alterations in 5,5′,6,6′-tetrachloro-1,1′,3,3′-tetraethylbenzimidazolylcarbocyanine iodide fluorescence (JC-1: 200 nM, ex 480 nm, em 580/535 nm, Molecular Probes). […] Ratiometric 580/535 nm fluorescent signal was quantified and reported as a percentage from the baseline pre-treatment average. […]
substance,measurement,setting,value
AIDP7-TAT: QQQEEDLKGYLDWITQAE with TAT sequence,BayK(−) induced increase in ψm (JC-1 fluorescence),cTnI.2 wt myocytes,significantly attenuated the response
same,mitochondrial membrane potential (JC-1),[1],reduced the mitochondrial membrane potential
